Here are results for two compounds from US12427210B2, “Compounds comprising a fibroblast activation protein ligand and use thereof” (priority 2019, dated 2025).

Read-outs that look alike come from different tables or passages of the source. Numbered stars: 1 amine (or outer) side, 2 acyl side, 3 side chain; on linkers, the order of the positions; unused ones are H or OH. Bridge positions count the residues as written; N and C are the ends. Peptide text beside a SMILES is read from it. * marks the point of attachment. X1 = O=C(O)CN1CCN(CC(=O)O)CCN(CC(=O)N2CCN(Cc3cc(C[*:1])cc(C[*:2])c3)CC2)CCN(CC(=O)O)CC1; Hexanoyl = CCCCCC(=O)*

One assay addresses Beta secretase (Homo sapiens, UniProt P56817). Briefly: biochemical. The following applies: read-out: Percentage inhibition (%).
In assay [1] the target is norepinephrine transporter (h) (Homo sapiens, UniProt P23975). Briefly: biochemical. To be noted: read-out: % Inhibition of Specific Binding.
Chain of norepinephrine transporter (h) (P23975 whole entry): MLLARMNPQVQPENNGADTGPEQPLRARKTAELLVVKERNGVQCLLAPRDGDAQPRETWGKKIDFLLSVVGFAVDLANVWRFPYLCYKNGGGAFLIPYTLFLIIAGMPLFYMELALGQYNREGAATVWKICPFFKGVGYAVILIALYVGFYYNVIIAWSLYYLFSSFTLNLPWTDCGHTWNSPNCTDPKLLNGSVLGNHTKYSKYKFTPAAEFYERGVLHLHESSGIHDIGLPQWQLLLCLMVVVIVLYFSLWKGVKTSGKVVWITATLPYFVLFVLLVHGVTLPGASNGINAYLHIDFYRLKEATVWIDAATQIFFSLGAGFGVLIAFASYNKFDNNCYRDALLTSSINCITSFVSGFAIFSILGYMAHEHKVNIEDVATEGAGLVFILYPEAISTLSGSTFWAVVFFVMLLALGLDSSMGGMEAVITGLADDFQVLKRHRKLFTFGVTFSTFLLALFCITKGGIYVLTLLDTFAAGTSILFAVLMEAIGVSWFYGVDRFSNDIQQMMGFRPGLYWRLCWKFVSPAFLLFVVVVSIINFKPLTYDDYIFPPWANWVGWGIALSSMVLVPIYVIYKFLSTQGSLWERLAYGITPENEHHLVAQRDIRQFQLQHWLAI
A further assay addresses H2 (h) (Homo sapiens, UniProt P25021). Briefly: biochemical. The following applies: read-out: % Inhibition of Specific Binding.
Another assay addresses A2A (h) (Homo sapiens, UniProt P29274). In words: biochemical. To be noted: read-out: % Inhibition of Specific Binding.
For another assay, the target named is CB2 (h) (Homo sapiens, UniProt P34972). Briefly: biochemical. The following applies: read-out: % Inhibition of Specific Binding.
Chain of CB2 (h) (P34972 whole entry): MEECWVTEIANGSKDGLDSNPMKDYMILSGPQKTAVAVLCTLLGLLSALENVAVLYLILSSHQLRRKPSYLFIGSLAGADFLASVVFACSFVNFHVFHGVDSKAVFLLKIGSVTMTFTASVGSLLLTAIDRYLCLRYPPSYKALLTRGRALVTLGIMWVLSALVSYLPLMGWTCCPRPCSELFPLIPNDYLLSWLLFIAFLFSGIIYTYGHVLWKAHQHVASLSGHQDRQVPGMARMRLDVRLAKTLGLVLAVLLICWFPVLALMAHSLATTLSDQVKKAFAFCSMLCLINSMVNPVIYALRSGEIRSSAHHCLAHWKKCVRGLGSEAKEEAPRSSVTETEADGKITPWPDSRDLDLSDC
In a further assay the target is T1, Deubiquitinase OTUD6B (Homo sapiens, UniProt Q8N6M0).
T1 sequence (Q8N6M0 1-293): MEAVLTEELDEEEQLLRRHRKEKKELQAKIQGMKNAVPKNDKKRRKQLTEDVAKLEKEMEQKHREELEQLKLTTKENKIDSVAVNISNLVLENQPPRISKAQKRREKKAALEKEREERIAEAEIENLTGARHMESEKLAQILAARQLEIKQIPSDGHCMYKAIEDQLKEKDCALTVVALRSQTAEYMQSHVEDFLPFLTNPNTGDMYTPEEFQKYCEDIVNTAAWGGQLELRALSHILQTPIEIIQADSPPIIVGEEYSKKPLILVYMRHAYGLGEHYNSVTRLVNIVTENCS
In words: biochemical. The following applies: read-out: Percentage inhibition (%).

The next assay addresses COX2(h) (Homo sapiens, UniProt P35354). Briefly: biochemical. The following applies: read-out: % Inhibition of Specific Binding.
The next assay deals with 5-HT3 (h) (Homo sapiens, UniProt P46098). Briefly: biochemical. The following applies: read-out: % Inhibition of Specific Binding.
Chain of 5-HT3 (h) (P46098 24-478): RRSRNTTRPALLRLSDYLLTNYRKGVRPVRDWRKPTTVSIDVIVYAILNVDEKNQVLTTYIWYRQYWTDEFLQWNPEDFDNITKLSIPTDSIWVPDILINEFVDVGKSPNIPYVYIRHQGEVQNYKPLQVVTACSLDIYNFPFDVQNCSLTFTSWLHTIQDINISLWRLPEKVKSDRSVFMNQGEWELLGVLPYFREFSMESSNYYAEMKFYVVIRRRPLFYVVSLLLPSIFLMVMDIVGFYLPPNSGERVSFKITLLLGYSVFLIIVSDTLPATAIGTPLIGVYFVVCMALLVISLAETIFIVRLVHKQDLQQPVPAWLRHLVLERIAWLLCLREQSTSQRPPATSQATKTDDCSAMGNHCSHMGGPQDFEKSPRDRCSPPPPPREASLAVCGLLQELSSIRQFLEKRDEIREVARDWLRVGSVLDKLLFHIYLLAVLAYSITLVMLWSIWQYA
Assay [2] deals with T2, Matrix metalloprotease 9 (mutant Q279R) (Homo sapiens, UniProt P14780, Q279R).
T2 sequence (P14780 94-707 Q279R): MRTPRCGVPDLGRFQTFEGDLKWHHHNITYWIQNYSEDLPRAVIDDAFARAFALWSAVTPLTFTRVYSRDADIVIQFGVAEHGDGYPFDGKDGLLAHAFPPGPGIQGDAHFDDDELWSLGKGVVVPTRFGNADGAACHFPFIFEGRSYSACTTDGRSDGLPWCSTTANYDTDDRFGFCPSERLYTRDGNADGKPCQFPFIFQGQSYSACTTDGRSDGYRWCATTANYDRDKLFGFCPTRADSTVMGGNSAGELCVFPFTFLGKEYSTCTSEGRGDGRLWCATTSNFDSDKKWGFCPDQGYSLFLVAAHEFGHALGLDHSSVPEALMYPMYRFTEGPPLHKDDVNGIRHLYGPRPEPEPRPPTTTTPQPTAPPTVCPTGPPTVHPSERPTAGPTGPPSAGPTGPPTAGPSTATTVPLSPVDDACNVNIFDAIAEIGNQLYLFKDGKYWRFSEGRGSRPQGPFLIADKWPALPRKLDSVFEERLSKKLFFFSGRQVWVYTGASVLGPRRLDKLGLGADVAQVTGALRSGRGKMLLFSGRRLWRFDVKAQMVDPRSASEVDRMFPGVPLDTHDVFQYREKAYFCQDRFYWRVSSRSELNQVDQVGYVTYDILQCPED
In words: biochemical. The following applies: read-out: Percentage inhibition (%).

A further assay deals with T3, Caspase-6 (Homo sapiens, UniProt P55212).
T3 sequence (P55212 24-179 limits assumed): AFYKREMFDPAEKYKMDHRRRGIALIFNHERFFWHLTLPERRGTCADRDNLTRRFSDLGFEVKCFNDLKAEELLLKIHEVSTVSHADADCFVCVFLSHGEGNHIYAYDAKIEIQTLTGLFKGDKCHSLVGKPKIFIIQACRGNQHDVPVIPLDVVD
T3 sequence (P55212 194-293 limits assumed): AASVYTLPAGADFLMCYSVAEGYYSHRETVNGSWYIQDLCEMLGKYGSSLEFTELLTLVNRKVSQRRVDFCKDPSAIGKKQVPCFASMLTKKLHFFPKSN
In words: biochemical. The following applies: read-out: Percentage inhibition (%).

Assay [3] concerns the target N neuronal alpha 4beta 2 (h) (Homo sapiens, UniProt P17787+P43681). In words: biochemical. To be noted: read-out: % Inhibition of Specific Binding.
Another assay has as its target alpha 2A (h) (Homo sapiens, UniProt P08913). In words: biochemical. The following applies: read-out: % Inhibition of Specific Binding.
A further assay deals with PDE3A (h) (Homo sapiens, UniProt Q14432). In words: biochemical. The following applies: read-out: % Inhibition of Specific Binding.
Chain of PDE3A (h) (Q14432 whole entry): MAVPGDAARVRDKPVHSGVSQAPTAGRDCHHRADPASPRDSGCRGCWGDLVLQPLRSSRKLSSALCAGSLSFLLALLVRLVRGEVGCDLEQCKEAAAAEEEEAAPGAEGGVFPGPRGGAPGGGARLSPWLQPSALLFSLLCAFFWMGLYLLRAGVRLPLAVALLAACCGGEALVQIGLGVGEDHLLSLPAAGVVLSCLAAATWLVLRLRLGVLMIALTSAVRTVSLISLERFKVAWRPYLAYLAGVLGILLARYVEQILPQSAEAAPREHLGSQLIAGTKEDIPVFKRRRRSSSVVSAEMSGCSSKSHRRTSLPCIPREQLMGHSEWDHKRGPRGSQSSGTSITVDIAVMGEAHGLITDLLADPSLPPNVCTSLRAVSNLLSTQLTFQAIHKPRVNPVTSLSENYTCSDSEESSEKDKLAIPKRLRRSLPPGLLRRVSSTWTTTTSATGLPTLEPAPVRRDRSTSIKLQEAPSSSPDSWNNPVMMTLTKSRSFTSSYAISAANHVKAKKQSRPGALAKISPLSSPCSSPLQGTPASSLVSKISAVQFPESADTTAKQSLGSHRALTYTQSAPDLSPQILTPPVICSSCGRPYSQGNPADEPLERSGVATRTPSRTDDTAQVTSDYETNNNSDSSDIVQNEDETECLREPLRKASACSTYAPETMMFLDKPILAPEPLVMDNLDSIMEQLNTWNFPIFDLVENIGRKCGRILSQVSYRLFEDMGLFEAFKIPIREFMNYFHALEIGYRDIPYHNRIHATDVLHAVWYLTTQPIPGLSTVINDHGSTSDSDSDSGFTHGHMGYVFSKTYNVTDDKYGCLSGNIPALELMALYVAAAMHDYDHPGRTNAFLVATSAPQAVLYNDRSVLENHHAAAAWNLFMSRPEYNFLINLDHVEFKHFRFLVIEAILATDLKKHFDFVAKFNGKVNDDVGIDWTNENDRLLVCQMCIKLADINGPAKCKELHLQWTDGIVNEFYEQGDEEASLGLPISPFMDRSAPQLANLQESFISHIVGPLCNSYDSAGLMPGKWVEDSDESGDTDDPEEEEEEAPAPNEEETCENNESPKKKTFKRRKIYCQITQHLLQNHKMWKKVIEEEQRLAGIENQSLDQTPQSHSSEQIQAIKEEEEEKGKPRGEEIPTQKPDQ
Assay [4] has as its system serine protease NS3 (a.a. 3-181) from Hepatitis C virus genotype 1b.
The next assay has as its target delta (DOP) (h) (Homo sapiens, UniProt P41143). In words: biochemical. To be noted: read-out: % Inhibition of Specific Binding.
Assay [5] has as its target T4, Ubiquitin carboxyl-terminal hydrolase 2 (Homo sapiens, UniProt O75604).
T4 sequence (O75604 1-605): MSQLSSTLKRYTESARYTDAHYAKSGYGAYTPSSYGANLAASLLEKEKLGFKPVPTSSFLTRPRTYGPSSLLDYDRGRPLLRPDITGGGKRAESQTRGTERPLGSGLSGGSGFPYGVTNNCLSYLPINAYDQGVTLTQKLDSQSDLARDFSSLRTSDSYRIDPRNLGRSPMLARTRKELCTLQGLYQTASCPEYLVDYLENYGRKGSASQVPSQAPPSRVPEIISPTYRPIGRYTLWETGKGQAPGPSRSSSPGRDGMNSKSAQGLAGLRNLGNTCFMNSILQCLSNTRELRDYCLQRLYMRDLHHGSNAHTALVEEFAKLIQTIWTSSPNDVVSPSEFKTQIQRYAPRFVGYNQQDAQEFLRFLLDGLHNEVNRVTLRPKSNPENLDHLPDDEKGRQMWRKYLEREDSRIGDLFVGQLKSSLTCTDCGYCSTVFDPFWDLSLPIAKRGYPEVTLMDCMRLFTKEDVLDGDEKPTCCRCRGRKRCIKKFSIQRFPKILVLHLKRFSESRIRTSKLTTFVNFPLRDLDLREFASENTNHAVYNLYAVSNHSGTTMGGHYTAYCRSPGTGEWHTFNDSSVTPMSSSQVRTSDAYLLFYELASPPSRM
Briefly: biochemical. To be noted: read-out: Percentage inhibition (%).

Assay [6] has as its target Ubiquitin carboxyl-terminal hydrolase 10 (Homo sapiens, UniProt Q14694). In words: biochemical. To be noted: read-out: Percentage inhibition (%).

Chain of Ubiquitin carboxyl-terminal hydrolase 10 (Q14694 whole entry): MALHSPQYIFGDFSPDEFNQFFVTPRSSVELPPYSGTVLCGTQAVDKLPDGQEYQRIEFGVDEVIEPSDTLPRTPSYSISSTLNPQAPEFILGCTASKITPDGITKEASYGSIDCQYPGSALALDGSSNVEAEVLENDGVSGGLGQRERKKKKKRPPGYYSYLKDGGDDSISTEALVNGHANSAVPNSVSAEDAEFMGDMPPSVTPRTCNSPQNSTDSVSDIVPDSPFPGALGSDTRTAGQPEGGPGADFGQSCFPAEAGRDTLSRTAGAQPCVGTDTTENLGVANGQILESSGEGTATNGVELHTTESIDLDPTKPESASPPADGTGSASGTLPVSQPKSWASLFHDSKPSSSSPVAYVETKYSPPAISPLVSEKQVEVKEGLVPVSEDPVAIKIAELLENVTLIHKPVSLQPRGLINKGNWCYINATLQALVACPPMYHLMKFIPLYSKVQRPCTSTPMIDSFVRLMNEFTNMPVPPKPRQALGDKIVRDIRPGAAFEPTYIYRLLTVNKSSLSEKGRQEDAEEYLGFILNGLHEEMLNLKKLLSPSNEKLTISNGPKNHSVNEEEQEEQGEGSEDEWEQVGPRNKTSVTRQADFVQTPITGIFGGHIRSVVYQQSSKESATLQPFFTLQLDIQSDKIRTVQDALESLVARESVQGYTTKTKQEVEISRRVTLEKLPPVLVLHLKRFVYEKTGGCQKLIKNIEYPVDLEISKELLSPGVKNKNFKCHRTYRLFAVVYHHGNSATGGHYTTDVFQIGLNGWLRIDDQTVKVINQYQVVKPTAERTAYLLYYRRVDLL
Chain of Beta secretase (P56817 46-501): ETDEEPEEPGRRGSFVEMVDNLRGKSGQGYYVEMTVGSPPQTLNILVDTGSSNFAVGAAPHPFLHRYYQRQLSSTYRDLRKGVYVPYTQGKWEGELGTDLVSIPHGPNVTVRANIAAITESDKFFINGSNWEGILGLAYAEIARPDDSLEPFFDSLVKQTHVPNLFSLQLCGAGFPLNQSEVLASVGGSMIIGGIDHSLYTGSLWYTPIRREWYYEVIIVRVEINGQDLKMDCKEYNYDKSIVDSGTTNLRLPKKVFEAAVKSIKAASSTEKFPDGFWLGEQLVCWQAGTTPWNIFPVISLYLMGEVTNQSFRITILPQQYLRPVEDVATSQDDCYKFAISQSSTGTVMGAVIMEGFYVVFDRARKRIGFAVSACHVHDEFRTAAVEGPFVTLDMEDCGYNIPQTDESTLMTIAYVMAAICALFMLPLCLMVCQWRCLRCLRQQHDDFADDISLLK
Chain of delta (DOP) (h) (P41143 whole entry): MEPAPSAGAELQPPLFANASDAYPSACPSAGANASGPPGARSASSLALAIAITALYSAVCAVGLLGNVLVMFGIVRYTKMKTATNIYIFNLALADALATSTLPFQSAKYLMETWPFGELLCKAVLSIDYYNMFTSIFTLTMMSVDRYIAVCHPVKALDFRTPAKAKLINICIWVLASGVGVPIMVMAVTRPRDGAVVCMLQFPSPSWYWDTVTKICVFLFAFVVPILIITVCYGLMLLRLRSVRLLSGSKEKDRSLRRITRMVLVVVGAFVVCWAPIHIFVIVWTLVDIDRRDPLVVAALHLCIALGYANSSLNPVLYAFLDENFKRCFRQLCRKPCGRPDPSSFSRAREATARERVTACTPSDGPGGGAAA
Chain of alpha 2A (h) (P08913 whole entry): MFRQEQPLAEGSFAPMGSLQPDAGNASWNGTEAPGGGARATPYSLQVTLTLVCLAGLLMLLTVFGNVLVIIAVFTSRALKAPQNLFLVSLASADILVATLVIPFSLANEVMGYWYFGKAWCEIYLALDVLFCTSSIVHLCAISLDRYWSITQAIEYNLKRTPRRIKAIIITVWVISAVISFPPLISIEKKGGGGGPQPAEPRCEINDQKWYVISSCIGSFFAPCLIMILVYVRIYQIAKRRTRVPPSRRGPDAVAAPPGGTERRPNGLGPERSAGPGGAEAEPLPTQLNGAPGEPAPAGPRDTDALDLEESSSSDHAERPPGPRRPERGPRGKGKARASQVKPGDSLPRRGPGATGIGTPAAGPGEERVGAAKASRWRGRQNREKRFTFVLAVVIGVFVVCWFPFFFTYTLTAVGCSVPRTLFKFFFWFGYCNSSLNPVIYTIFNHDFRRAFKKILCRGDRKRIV
Chain of H2 (h) (P25021 whole entry): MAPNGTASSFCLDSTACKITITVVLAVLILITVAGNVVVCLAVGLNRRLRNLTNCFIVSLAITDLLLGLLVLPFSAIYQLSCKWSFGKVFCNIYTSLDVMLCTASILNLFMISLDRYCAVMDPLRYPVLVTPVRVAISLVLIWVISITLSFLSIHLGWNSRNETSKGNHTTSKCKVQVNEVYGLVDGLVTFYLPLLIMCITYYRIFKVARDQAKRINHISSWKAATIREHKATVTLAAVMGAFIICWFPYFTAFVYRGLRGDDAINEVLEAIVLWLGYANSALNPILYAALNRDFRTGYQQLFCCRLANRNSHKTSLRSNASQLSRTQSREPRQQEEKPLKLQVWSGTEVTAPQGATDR

`CCCCCC(=O)N[C@H]1CSCc2cc(cc(CN3CCN(C(=O)CN4CCN(CC(=O)O)CCN(CC(=O)O)CCN(CC(=O)O)CC4)CC3)c2)CSC[C@@H](C(=O)N[C@@H](CC(=O)O)C(N)=O)NC(=O)[C@H](Cc2ccccc2)NC(=O)[C@H](CCC(N)=O)NC(=O)[C@H]([C@@H](C)O)NC(=O)[C@@H]2CCCN2C(=O)[C@@H]2CCCN2C1=O` [Compound 3BP-3407, Hex-[Cys(tMeBn(DOTA-PP))-Pro-Pro-Thr-Gln-Phe-Cys]-Asp-NH2] (Hexanoyl-CPPTQFCD-NH2; linker 1-7 via X1): the inhibition at 1 µM is -8% on Beta secretase; 2% on Deubiquitinase OTUD6B; 3% in [2]; 1% on Caspase-6; 3% in assay [5]; -2% in assay [6]. The inhibition at 10 µM at Beta secretase was -5%; in [1], -8%; at H2 (h) it was -5%; at A2A (h), -4%; on CB2 (h), 2%; on Deubiquitinase OTUD6B it was 15%. Moreover, the inhibition at 10 µM on COX2(h) is -14%; at 5-HT3 (h), 2%; in assay [2], 2%; at Caspase-6, -1%; in assay [3] it was -8%; on alpha 2A (h), -9%. Also, the inhibition at 10 µM at PDE3A (h) was -3%; at delta (DOP) (h), 0%; in [5], 7%; in [6], 5%. For the same compound, the figures for the “Percentage inhibition (%)” value in [4] (1 μM) and in assay [4] (10 μM) were 1% and 5%, respectively.
For the compound `CCCCCC(=O)N[C@H]1CSCc2cc(CSCCNC(=O)CN3CCN(CC(=O)O)CCN(CC(=O)O)CCN(CC(=O)O)CC3)cc(c2)CSC[C@@H](C(=O)O)NC(=O)[C@H](Cc2ccccc2)NC(=O)[C@H](CCC(N)=O)NC(=O)[C@H]([C@@H](C)O)NC(=O)[C@@H]2CCCN2C(=O)[C@@H]2CCCN2C1=O` [Compound 3BP-3554, Hex-[Cys(tMeBn(DOTA-AET))-Pro-Pro-Thr-Gln-Phe-Cys]-OH], the inhibition at 1 µM on Beta secretase worked out at 1%; on Deubiquitinase OTUD6B, 0%; in assay [2], 3%; at Caspase-6 it was 6%; in [5], 0%; in assay [6], 1%. Further, the inhibition at 10 µM was 7% on Beta secretase; -5% in assay [1]; -16% on H2 (h); -16% on A2A (h); -5% at CB2 (h); 0% on Deubiquitinase OTUD6B. Also, the inhibition at 10 µM at COX2(h) is -22%; at 5-HT3 (h), 4%; in assay [2] it was 2%; on Caspase-6, -3%; in assay [3], -2%; on alpha 2A (h), 2%. In addition, the inhibition at 10 µM on PDE3A (h) was -37%; at delta (DOP) (h), 1%; in assay [5], -1%; in assay [6] it was -1%. In addition, the “Percentage inhibition (%)” value is reported as −5% in assay [4] (1 μM) and −9% in assay [4] (10 μM).

What is called inhibition is the drop in the measured response relative to a control, in per cent.
